Measured values taken from patent US10597649B2, “Tau protease compositions and methods of use” (Oligomerix, Inc., priority 2011, dated 2020).

Tests used:
Format in all cases: biochemical
[1] = system: Human α-endorphin peptide; experiment: Cleavage of α-endorphin peptide (HPLC); details: 20 hrs at 37° C.
Description: Human α-endorphin peptide [[…](SEQ ID NO:13) (Abbiotech, LLC, San Diego, Calif., USA)] was incubated at 37° C. for 20 hrs with or without […] tau 4R2N trimer protease, and analyzed by reverse phase HPLC (SystemGold® 32Karat™ LC-CE System, Beckman Coulter, Inc., Indianapolis, Ind., USA) using a linear gradient of acetonitrile in 0.1% TFA, 0-60% acetonitrile on an analytical C18 column (12.5 cm×2.1 mm, 5 μm (Supelco). The peptide was hypothesized to be cut by tau protease because it contains Lys-Ser in its sequence which is found at autocatalytic cleavage sites in tau. Two fragment peaks were produced as predicted by tau 4R2N trimer protease. […] The asterisk indicates an artifactual peak unrelated to the peptide;
12 μg of α-endorphin peptide (Anaspec, Fremont, Calif.) was incubated with 1.2 μg of tau 4R/2N trimer in reaction buffer (25 mM Tris-HCl pH 7.4) for 20 hrs at 37° C. Reverse phase HPLC was used to monitor the cleavage of the peptide. […] The asterisk indicates an artifact peak that is derived from the incubation tube.

Tau 4R2N = biological target: T1, Tau 4R2N (Homo sapiens, UniProt P10636); experiment: Autoproteolytic activity of purified tau monomer, dimer and trimer (SDS-PAGE)
T1 construct: Stabilization buffer enables production of full length monomer, dimer and trimer for tau protease; made in house; host or cells: E. coli BL21 (DE3) Gold
T1 sequence (P10636 1-441 isoform P10636-8): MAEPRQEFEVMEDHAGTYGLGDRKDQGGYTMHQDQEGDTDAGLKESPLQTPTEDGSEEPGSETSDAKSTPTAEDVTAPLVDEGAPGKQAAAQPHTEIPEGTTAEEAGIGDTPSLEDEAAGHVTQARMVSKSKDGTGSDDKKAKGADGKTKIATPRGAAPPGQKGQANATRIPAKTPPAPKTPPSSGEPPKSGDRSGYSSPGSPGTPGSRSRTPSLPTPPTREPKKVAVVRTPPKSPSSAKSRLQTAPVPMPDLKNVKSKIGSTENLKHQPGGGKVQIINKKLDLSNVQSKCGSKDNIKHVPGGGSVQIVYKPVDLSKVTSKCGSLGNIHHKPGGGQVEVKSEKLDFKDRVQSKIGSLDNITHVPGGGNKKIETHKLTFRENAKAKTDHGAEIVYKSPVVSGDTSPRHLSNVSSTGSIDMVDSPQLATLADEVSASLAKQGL
Description: This example describes the identification of the autoproteolytic activity of tau oligomers.
Purified recombinant human tau 4R2N was prepared as described in the flow chart. Monomer, dimer and trimer species were purified preparative electrophoresis from a tau 4R2N preparation that had formed oligomers. The electrophoresis buffer contained 0.1% SDS which inhibited the proteolytic activity. Fractions containing the tau species were buffer exchanged into 25 mM Tris-HCl pH 7.4 using and Amicon ultrafiltration device (Merck Millipore, Billerica, Mass.), which led to restoration of tau autoproteolytic activity. Protein concentrations of the preparations were determined using the BCA kit (ThemoFisher Scientific). Samples were run on a pre-cast 4-20% polyacrylamide Tris-HCl gel (BioRad, Hercules, Calif.) without using reductant in order to visualize the disulfide mediated oligomers. The gel was stained with GelCodeBlue Safe (ThermoFisher Scientific, Rockford, Ill.). Lane 1: 5.2 μg of tau 4R2N oligomer standard; Lane 2: 2 microliter of monomer fraction before buffer exchange; Lane 3: 0.5 μg monomer after buffer exchange; Lane 4: […] of dimer fraction before buffer exchange; Lane 5: 0.5 μg dimer after buffer exchange; Lane 6: 20 μL trimer fraction before buffer exchange; Lane 7: 0.5 μg trimer after buffer exchange.
Tau 4R2N undergoes autoproteolytic cleavage (self-cleavage) when it forms disulfide-mediated oligomers upon incubation. Tau autoproteolyic activity co-purified with the dimer and trimer species. The amount of autoproteolytic activity was greatest with trimer which fragmented to the extent where no full size trimer remained after incubation. […] It was also shown that Tau autoproteolytic activity co-purified with dimer and trimer species. […] Full-length trimer digested completely into smaller fragments, and upon incubation, monomer formed an oligomeric ladder that produced a low level of autoproteolytic activity.
(§1) Monomer, Dimer, and Trimer of Tau 441 were purified under non-reducing conditions using continuous-elution electrophoresis. Fractions of each oligomer sample were pooled and buffer exchanged into stabilization buffer using an Amicon spin concentrator with a molecular weight cut-off of 30,000 daltons. 0.35 μg of each sample was incubated overnight at 37° C. while non-incubated control was kept on ice at 4° C. Next day, 2×SDS sample buffer without reductant was added to each sample and loaded onto a 4-20% gradient Tris-HCl Criterion Gel (Bio-Rad, Hercules, Calif.).
as §1, with “This example presents results from a contamination control study of tau protease. Monomer,” for “Monomer,”, “2× sodium dodecyl sulfate” for “2×SDS”
Lane 1—tau oligomer ladder standard; Lane 2—empty; Lane 3—purified monomer no incubation (fraction from purification plate); Lane 4—purified monomer without incubation; Lane 5—purified monomer with incubation; Lane 6—purified dimer without incubation; Lane 7—purified dimer with incubation; Lane 8—purified trimer without incubation; purified trimer with incubation overnight at 37° C. Lanes 3-9 were treated with sample buffer containing β-mercaptoethanol (BME).

[2] = system: Tau 4R1N oligomer mixture; experiment: Cleavage of tau 4R1N by tau 4R2N trimer (SDS-PAGE); details: overnight at 37° C.
Description: Tau oligomer formation leads to gain of toxic function and loss of function of tau monomer degraded by tau 4R2N trimer activity. Lane 1: Tau 4R2N monomer (0.1 μg); Lane 2: 1× Sample Buffer without reductant; Lane 3: 4R2N Trimer, no 4R1N; Lane 4:Tau 4R1N, no tau 4R2N trimer; Lane 5: Tau 4R2N trimer:tau 4R1N, 1:10; Lane 6: Tau 4R2N trimer:tau 4R1N trimer, 1:100; Lane 7: Tau 4R2N trimer:tau 4R1N 1:10. […] The arrows indicate fragments of tau 4R1N that are generated from tau 4R2N trimer protease activity. For the upper arrow, the fragments have the same apparent MW between the two isoforms, the lower arrow fragments differ with the fragment from tau 4R1N migrating faster than the fragment from tau 4R2N;

tubulin = experiment: Cleavage of tubulin by tau 4R2N trimer (SDS-PAGE); details: 19.25 hrs at 37° C.
Description: In a result not shown, tau 4R2N trimer cut tubulin. In that study, Lane 1—tubulin, no incubation; Lane 2—tubulin incubated without tau; Lane 3—tubulin with tau 4R/2N trimer, no incubation; Lane 4—tubulin incubated with tau 4R2N trimer. […] Incubation of tubulin with tau4R2N trimer led to the formation of tubulin fragments and degradation of tubulin dimer.
Lyophilized tubulin (Cat# TL238, Cytoskeleton Inc.) was suspended in 200 μL buffer for 6 mg/mL solution. Samples were incubated for 19.25 hrs at 37° C. 10 μL 2× Laemmli sample buffer (BME) was added to each sample. Samples heated at 95° C. for 5 min in a thermal cycler with heated lid 5 min prior to loading.

degradation in contamination control study (Example 3) (Tau 4R2N; 0.35 μg, overnight at 37° C., equal sample volumes from purification): preferentially degraded | autoproteolytic activity (Example 1) (Tau 4R2N; after buffer exchange into 25 mM Tris-HCl pH 7.4, incubation at 37° C.): greatest
Substance: tau 4R2N trimer: purified disulfide-mediated trimer species of recombinant human tau 4R2N
cutting of α-endorphin peptide [1]: cuts α-endorphin peptide | cutting of tau 4R1N [2]: cuts tau (4R1N) monomer and tau dimer | cutting of tubulin (tubulin): cut tubulin
